In patent US12139520B2 (priority 2020, dated 2024):
Bridge positions count the residues as written; N and C are the ends. Square brackets hold non-standard residues; d marks the D form. Peptide text beside a SMILES is read from it. Hyp = O=C(O)[C@@H]1C[C@@H](O)CN1; Cit = NC(=O)NCCC[C@H](N)C(=O)O

Columns and labels:
[1] = Physical stability of peptide analogues (Thioflavin T fibrillation); format: physicochemical; conditions: maximum ThT signal normalized between hAMY maximum and buffer background; 40° C., shaking, four days; pH 7 per table title
Procedure, shortened: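 Samples are stressed at 40 °C for four days, being shaken at 700 rpm before each 10-min fluorescence reading of 4 μM Thioflavin T. Buffers were pH 4 acetate or pH 7 phosphate. Reported values are smoothed maximum ThT signals as a percentage of the hAMY-to-background range.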

hAMY3 receptor = target: T1, hAMY3 receptor (Homo sapiens, UniProt O60896+P30988); assay: cAMP assay for in vitro receptor activation, hAMY3-R; format: cell-based; conditions: cAMP assay, hAMY3 receptor; read-out: hAMY3R EC50
T1 sequence (P30988 25-474): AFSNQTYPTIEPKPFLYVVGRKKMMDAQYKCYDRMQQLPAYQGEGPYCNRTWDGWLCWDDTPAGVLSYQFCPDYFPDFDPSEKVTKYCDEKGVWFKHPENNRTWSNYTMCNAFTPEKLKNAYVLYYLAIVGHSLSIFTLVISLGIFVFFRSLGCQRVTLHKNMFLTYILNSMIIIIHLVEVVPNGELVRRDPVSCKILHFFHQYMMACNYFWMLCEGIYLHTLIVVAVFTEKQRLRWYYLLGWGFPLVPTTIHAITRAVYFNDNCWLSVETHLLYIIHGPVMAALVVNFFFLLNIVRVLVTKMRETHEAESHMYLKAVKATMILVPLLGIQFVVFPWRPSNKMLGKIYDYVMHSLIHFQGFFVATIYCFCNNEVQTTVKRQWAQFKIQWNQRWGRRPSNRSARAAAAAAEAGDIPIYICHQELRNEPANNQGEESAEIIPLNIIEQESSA
T1 sequence (O60896 24-148 partner): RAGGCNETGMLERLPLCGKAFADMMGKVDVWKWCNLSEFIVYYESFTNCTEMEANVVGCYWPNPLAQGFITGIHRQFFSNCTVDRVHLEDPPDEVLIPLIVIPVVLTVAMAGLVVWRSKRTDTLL
Procedure, shortened: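 Graded compound concentrations were applied for 30 min at room temperature to stably hAMY3-expressing cells in DPBS, 0.05% casein, 0.5 mM IBMX; cAMP detected by TR-FRET.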

hAM1 receptor = hAM1 receptor (Homo sapiens, UniProt O60895+Q16602); assay: cAMP assay for in vitro receptor activation, hAM1-R; format: cell-based; conditions: cAMP assay, hAM1 receptor; read-out: hAM1R EC50
hAM1 receptor, sequence (Q16602 23-461): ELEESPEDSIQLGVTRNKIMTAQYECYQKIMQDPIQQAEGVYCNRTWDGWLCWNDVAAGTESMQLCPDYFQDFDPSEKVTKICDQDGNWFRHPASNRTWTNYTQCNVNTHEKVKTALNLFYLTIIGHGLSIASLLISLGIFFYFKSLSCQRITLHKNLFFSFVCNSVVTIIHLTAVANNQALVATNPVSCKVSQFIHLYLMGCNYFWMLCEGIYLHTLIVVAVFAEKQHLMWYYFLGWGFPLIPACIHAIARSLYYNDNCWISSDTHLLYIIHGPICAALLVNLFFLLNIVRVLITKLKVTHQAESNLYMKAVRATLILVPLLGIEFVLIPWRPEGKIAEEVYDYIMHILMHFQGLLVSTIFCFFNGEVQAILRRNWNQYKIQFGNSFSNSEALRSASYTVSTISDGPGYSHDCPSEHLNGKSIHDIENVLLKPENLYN
hAM1 receptor, sequence (O60895 43-175 partner): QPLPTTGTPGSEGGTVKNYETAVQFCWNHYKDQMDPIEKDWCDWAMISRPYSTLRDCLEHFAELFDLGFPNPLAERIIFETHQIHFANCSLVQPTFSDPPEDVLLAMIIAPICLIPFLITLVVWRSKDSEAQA
Procedure, shortened: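 A subcloned monoclonal line stably expressing hAM1 receptor is thawed and plated at 8000 cells/well. The assay buffer is DPBS with 0.05% casein and 0.5 mM IBMX, and receptor activation is followed by cAMP levels.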

Max ThT signal (%) [1] [%] | EC50 (hAMY3 receptor) [nM] | EC50 (hAM1 receptor) [nM] | SMILES
17.100 | 0.035 | > 5000 | CC[C@H](C)[C@H](NC(=O)[C@H](CCC(N)=O)NC(=O)[C@H](Cc1c[nH]cn1)NC(=O)[C@H](C)NC(=O)[C@H](CC(C)C)NC(=O)[C@H](CCCNC(N)=O)NC(=O)[C@H](CCC(N)=O)NC(=O)[C@@H](NC(=O)[C@@H](NC(=O)[C@@H]1CSSC[C@H](NC(=O)CN)C(=O)N[C@@H](CCCNC(=N)N)C(=O)N[C@@H](Cc2ccccc2)C(=O)NCC(=O)N[C@@H]([C@@H](C)O)C(=O)N1)[C@@H](C)O)C(C)C)C(=O)N[C@@H](Cc1ccc(O)cc1)C(=O)N[C@@H](CCC(N)=O)C(=O)N[C@@H](Cc1ccccc1)C(=O)N[C@H](C(=O)N[C@@H](CC(=O)O)C(=O)N[C@@H](CCCCN)C(=O)N[C@@H](CC(=O)O)C(=O)N[C@@H](CCCCN)C(=O)N[C@@H](CC(=O)O)C(=O)N[C@@H](CC(N)=O)C(=O)N[C@H](C(=O)N[C@@H](C)C(=O)N1CCC[C@H]1C(=O)N[C@@H](CCCNC(=N)N)C(=O)N[C@H](C(=O)N[C@@H](CC(N)=O)C(=O)N[C@H](C(=O)N[C@@H](CO)C(=O)N1CCC[C@H]1C(=O)N[C@@H](CCC(N)=O)C(=O)NCC(=O)N1C[C@H](O)C[C@H]1C(N)=O)C(C)C)[C@@H](C)O)C(C)C)[C@@H](C)O [compound 283] (H-GCRFGTCTVQ[Cit]LAHQIYQFTDKDKDNVAPRTNVSPQG[Hyp]-NH2; disulfide 2-7; N-terminus assumed)
34.500 | 0.005 | > 5000 | CC[C@H](C)[C@H](NC(=O)[C@H](CCC(N)=O)NC(=O)[C@H](Cc1c[nH]cn1)NC(=O)[C@H](C)NC(=O)[C@H](CC(C)C)NC(=O)[C@H](CCCNC(N)=O)NC(=O)[C@H](CCC(N)=O)NC(=O)[C@@H](NC(=O)[C@@H](NC(=O)[C@@H]1CSSC[C@H](NC(=O)CN)C(=O)N[C@@H](CCCNC(=N)N)C(=O)N[C@@H]([C@@H](C)O)C(=O)NCC(=O)N[C@@H]([C@@H](C)O)C(=O)N1)[C@@H](C)O)C(C)C)C(=O)N[C@@H](Cc1ccc(O)cc1)C(=O)N[C@@H](CCC(N)=O)C(=O)N[C@@H](Cc1ccccc1)C(=O)N[C@H](C(=O)N[C@@H](CC(=O)O)C(=O)N[C@@H](CCCCN)C(=O)N[C@@H](CC(=O)O)C(=O)N[C@@H](CCCCN)C(=O)N[C@@H](CC(=O)O)C(=O)N[C@@H](CC(N)=O)C(=O)N[C@H](C(=O)N[C@@H](C)C(=O)N1CCC[C@H]1C(=O)N[C@@H](CCCNC(=N)N)C(=O)N[C@H](C(=O)N[C@@H](CC(N)=O)C(=O)N[C@H](C(=O)NCC(=O)N1CCC[C@H]1C(=O)N[C@@H](CC(N)=O)C(=O)NCC(=O)N[C@@H](Cc1ccc(O)cc1)C(N)=O)C(C)C)[C@@H](C)O)C(C)C)[C@@H](C)O [compound 269] (H-GCRTGTCTVQ[Cit]LAHQIYQFTDKDKDNVAPRTNVGPNGY-NH2; disulfide 2-7; N-terminus assumed)

Second part, the compound before the results:

SMILES | Max ThT signal (%) [1] [%] | EC50 (hAMY3 receptor) [nM] | EC50 (hAM1 receptor) [nM]
CC[C@H](C)[C@H](NC(=O)[C@H](CCC(N)=O)NC(=O)[C@H](Cc1c[nH]cn1)NC(=O)[C@H](C)NC(=O)[C@H](CC(C)C)NC(=O)[C@H](CCCNC(=N)N)NC(=O)[C@H](CCC(N)=O)NC(=O)[C@@H](NC(=O)[C@@H](NC(=O)[C@@H]1CSSC[C@H](NC(=O)[C@@H](N)CCCCN)C(=O)N[C@@H](CC(N)=O)C(=O)N[C@@H]([C@@H](C)O)C(=O)N[C@@H](C)C(=O)N[C@@H]([C@@H](C)O)C(=O)N1)[C@@H](C)O)C(C)C)C(=O)N[C@@H](C)C(=O)N[C@@H](CCC(N)=O)C(=O)N[C@@H](Cc1ccccc1)C(=O)N[C@H](C(=O)N[C@@H](CC(=O)O)C(=O)N[C@@H](CCCCN)C(=O)N[C@@H](CC(=O)O)C(=O)N[C@@H](CCCCN)C(=O)N[C@@H](CC(=O)O)C(=O)N[C@@H](CC(N)=O)C(=O)N[C@H](C(=O)N[C@@H](C)C(=O)N1CCC[C@H]1C(=O)N1CCC[C@H]1C(=O)N[C@H](C(=O)N[C@@H](CC(N)=O)C(=O)N[C@H](C(=O)NCC(=O)N[C@@H](CO)C(=O)N[C@@H](CC(N)=O)C(=O)NCC(=O)N1C[C@H](O)C[C@H]1C(N)=O)C(C)C)[C@@H](C)O)C(C)C)[C@@H](C)O [compound 14] (H-KCNTATCTVQRLAHQIAQFTDKDKDNVAPPTNVGSNG[Hyp]-NH2; disulfide 2-7; N-terminus assumed) | 3.100 | 0.007 | > 5000
CC[C@H](C)[C@H](NC(=O)[C@H](CCC(N)=O)NC(=O)[C@H](Cc1c[nH]cn1)NC(=O)[C@H](C)NC(=O)[C@H](CC(C)C)NC(=O)[C@H](CCCNC(=N)N)NC(=O)[C@H](CCC(N)=O)NC(=O)[C@@H](NC(=O)[C@@H](NC(=O)[C@@H]1CSSC[C@H](NC(=O)CN)C(=O)N[C@@H](CCCNC(=N)N)C(=O)N[C@@H]([C@@H](C)O)C(=O)NCC(=O)N[C@@H]([C@@H](C)O)C(=O)N1)[C@@H](C)O)C(C)C)C(=O)N[C@@H](Cc1ccc(O)cc1)C(=O)N[C@@H](CCC(N)=O)C(=O)N[C@@H](Cc1ccccc1)C(=O)N[C@H](C(=O)N[C@@H](CC(N)=O)C(=O)N[C@@H](CCCCN)C(=O)N[C@@H](CC(=O)O)C(=O)N[C@@H](CCCCN)C(=O)N[C@@H](CC(=O)O)C(=O)N[C@@H](CC(N)=O)C(=O)N[C@H](C(=O)N[C@@H](C)C(=O)N1CCC[C@H]1C(=O)N[C@@H](CCCNC(=N)N)C(=O)N[C@@H](CO)C(=O)N[C@@H](CCCCN)C(=O)N[C@H](C(=O)N[C@@H](CO)C(=O)N1CCC[C@H]1C(=O)N[C@@H](CCC(N)=O)C(=O)N[C@H](C(=O)N[C@@H](CCSC)C(N)=O)[C@@H](C)O)[C@@H](C)CC)C(C)C)[C@@H](C)O [compound 237] (H-GCRTGTCTVQRLAHQIYQFTNKDKDNVAPRSKISPQTM-NH2; disulfide 2-7) | 0.300 | 0.235 | 4250
CC[C@H](C)[C@H](NC(=O)[C@H](CCC(N)=O)NC(=O)[C@H](C)NC(=O)[C@H](C)NC(=O)[C@H](CC(C)C)NC(=O)[C@H](CCCNC(=N)N)NC(=O)[C@H](CCC(N)=O)NC(=O)[C@@H](NC(=O)[C@@H](NC(=O)[C@@H]1CSSC[C@H](NC(=O)[C@@H](N)CCCCN)C(=O)N[C@@H](CC(N)=O)C(=O)N[C@@H]([C@@H](C)O)C(=O)N[C@@H](C)C(=O)N[C@@H]([C@@H](C)O)C(=O)N1)[C@@H](C)O)C(C)C)C(=O)N[C@@H](Cc1ccc(O)cc1)C(=O)N[C@@H](CCC(N)=O)C(=O)N[C@@H](Cc1ccccc1)C(=O)N[C@H](C(=O)N[C@@H](CC(=O)O)C(=O)N[C@@H](CCCCN)C(=O)N[C@@H](CC(=O)O)C(=O)N[C@@H](CCCCN)C(=O)N[C@@H](CC(=O)O)C(=O)N[C@@H](CC(N)=O)C(=O)N[C@H](C(=O)N[C@@H](C)C(=O)N1CCC[C@H]1C(=O)N1CCC[C@H]1C(=O)N[C@H](C(=O)N[C@@H](CC(N)=O)C(=O)N[C@H](C(=O)NCC(=O)N[C@@H](CO)C(=O)N[C@@H](CC(N)=O)C(=O)NCC(=O)N1C[C@H](O)C[C@H]1C(N)=O)C(C)C)[C@@H](C)O)C(C)C)[C@@H](C)O [compound 7] (H-KCNTATCTVQRLAAQIYQFTDKDKDNVAPPTNVGSNG[Hyp]-NH2; disulfide 2-7; N-terminus assumed) | 2.800 | 0.006 | > 5000
CC[C@H](C)[C@H](NC(=O)[C@H](CCC(N)=O)NC(=O)[C@H](Cc1c[nH]cn1)NC(=O)[C@H](C)NC(=O)[C@H](CC(C)C)NC(=O)[C@H](CCCNC(N)=O)NC(=O)[C@H](CCC(N)=O)NC(=O)[C@@H](NC(=O)[C@@H](NC(=O)[C@@H]1CSSC[C@H](NC(=O)[C@@H](N)CCCCN)C(=O)N[C@@H](CC(N)=O)C(=O)N[C@@H]([C@@H](C)O)C(=O)N[C@@H](C)C(=O)N[C@@H]([C@@H](C)O)C(=O)N1)[C@@H](C)O)C(C)C)C(=O)N[C@@H](Cc1ccc(O)cc1)C(=O)N[C@@H](CCC(N)=O)C(=O)N[C@@H](Cc1ccccc1)C(=O)N[C@H](C(=O)N[C@@H](CC(=O)O)C(=O)N[C@@H](CCCCN)C(=O)N[C@@H](CC(=O)O)C(=O)N[C@@H](CCCCN)C(=O)N[C@@H](CC(=O)O)C(=O)N[C@@H](CC(N)=O)C(=O)N[C@H](C(=O)N[C@@H](C)C(=O)N1CCC[C@H]1C(=O)N[C@@H](CCCNC(=N)N)C(=O)N[C@H](C(=O)N[C@@H](CCC(=O)O)C(=O)N[C@H](C(=O)NCC(=O)N[C@@H](CO)C(=O)N[C@@H](CC(N)=O)C(=O)NCC(=O)N[C@@H](Cc1ccc(O)cc1)C(N)=O)C(C)C)[C@@H](C)O)C(C)C)[C@@H](C)O [compound 272] (H-KCNTATCTVQ[Cit]LAHQIYQFTDKDKDNVAPRTEVGSNGY-NH2; disulfide 2-7; N-terminus assumed) | 16.750 | 0.009 | > 5000
